In US20070082858A1, “Methods and compositions for the prevention of toxic side effects of aminoglycoside medications” (priority 2004, published 2007):

What was measured:
[1] = test system: cochlear hair cells; test: In vivo GTTR uptake in mouse cochlea after sub-cutaneous injection; set-up: species or system mice
Description: (§1) Gentamicin sulfate was conjugated to Texas Red (Molecular Probes) using published methods (1) to produce a 300:1 molar dilution of gentamicin-Texas Red conjugate (GTTR). Mice were injected sub-cutaneously with a single 300 mg/kg dose of GTTR. Frogs were injected directly into the lymph sac (there is no sub-cutaneous space in frogs, lymph sacs drain directly into the blood). Control animals received an equivalent dose of hydrolyzed Texas Red succinimidyl esters only.
At specific time-points (0.5, 1, 2, 3, 6, 7.5, 9 and 24 hours) following injection, animals were anesthetized and inner ear organs were excised and fixed in 4% formaldehyde overnight. After washing in PBS, frog and murine organs were permeabilized using ice-cold acetone, and all organs were labeled with Alexa-488-conjugated, or FITC-conjugated phalloidin to localize filamentous actin. […]
For data analysis of murine samples, area intensity measurements of optically-sectioned hair cells (approximately 1-2 microns below the cuticular plate) were obtained from apical and basal cochlear regions (25 hair cells per row in each region). The mean basal intensity was divided by the mean apical intensity of an equivalent number of hair cells to derive a ratio that indicates the relative degree of fluorescence in basal hair cells compared to apical hair cells. […]

[2] = test system: bullfrog saccular hair cells; test: In vivo GTTR uptake in bullfrog saccule after lymph sac injection
Description: as §1
At specific time-points (0.5, 1, 2, 3, 6, 7.5, 9 and 24 hours) following injection, animals were anesthetized and inner ear organs were excised and fixed in 4% formaldehyde overnight. After washing in PBS, frog and murine organs were permeabilized using ice-cold acetone, and all organs were labeled with Alexa-488-conjugated, or FITC-conjugated phalloidin to localize filamentous actin. Mouse and frog inner ear epithelia were whole-mounted and observed using a Bio-Rad MRC 1024 ES laser scanning confocal system attached to a Nikon Eclipse TE300 inverted microscope. Alexa-488 and Texas Red images were collected sequentially using 1024×1024 pixel box size using a 4× (n.a. 0.25) and a 60× lens (n.a. 1.4) with an xy resolution=230 nm and xz resolution=440 nm. All control organs were imaged at the same laser intensity and gain settings as treated organs.

[3] = PIP2 quenching of GTTR and TR fluorescence (fixed cells and 3-d scanning fluorescence spectroscopy); conditions: 1 mg/ml PIP2 for 1.5 hour, imaged in PIP2 solution; recovered after delipidation
Description: PIP2: Monolayer MDCK cells were grown in coverglass chambers as described above. After fixation, delipidation, washing and imaging (FIG. 27B), cells were treated with 1 mg/mL phosphatidylinositol-4,5-bisphosphate (PIP2, Echelon Biosciences, Salt Lake City, Utah) for 1.5 hours and re-imaged (FIG. 27E), prior to a second delipidation with 0.5% Triton, washing and imaging again (FIG. 27F).
Spectrophotometry: 3-d scanning fluorescence spectroscopy of solutions containing TR or GTTR with or without (PIP2) were performed using a Safire fluorescence microplate reader (Tecan, Research Triangle Park, N.C.). GTTR (100 μg/mL; weight as gentamicin in molecule) and PIP2 (155 μg/mL; approximately equimolar) were mixed vigorously in PBS solution and allowed to stand at room temperature for ½ hour prior to scanning. This was compared to the same concentration of GTTR alone in solution. Similar hydrolyzed Texas Red solutions (at the same concentration as the Texas Red moiety in GTTR solutions), with or without PIP2, were used as controls. Excitation and emission spectra were obtained over an excitation range of 570-604 nm (bandwidth 5 nm) and an emission range of 610-650 nm (bandwidth 5 nm).

[4] = test system: MDCK cells; test: GTTR uptake into MDCK cells under TRPV1 agonists/antagonists, cation channel blockers, cations and pH (30-60 seconds, 20° C., FATX fixation, confocal imaging); conditions: 75 μg/ml PIP2 added to 1 μg/ml GTTR in PBS, 1 minute
Description: MDCK cells were used as a model system to test regulation of GTTR uptake by conditions known to produce or modify a cation current through the TRPV1 channel. Conditions tested were varying extracellular calcium concentrations, pH, specific agonists, specific antagonists, and the non-specific cation channel blocker Ruthenium Red. In addition, we pre-mixed PIP2 with GTTR to determine whether that anionic phospholipid, known to bind gentamicin, would alter GTTR uptake. All these assays were done at room temperature (20° C.), for 30 or 60 seconds, and using doses of GTTR of 5 to 10 μg/ml, which are far below the typical therapeutic level of <300 μg/ml. Buffers used for treatment were as described for each experiment. Cells were quickly washed to replace culture medium with treatment buffer, treated as indicated, washed again after treatment, fixed immediately with 4% formaldehyde and 0.5% Triton X-100 (FATX), and washed prior to imaging.
Methods: Cells were seeded into 8-well coverglass chambers at 3000 cells/well and grown for 5 days.
Cells were washed three times with the buffer to be used in the particular experiment, treated with GTTR and experimental variable for 30 or 60 seconds at 20° C., precluding endocytosis. Following treatment, cells were rinsed three times with buffer, then fixed and delipidated with 4% formaldehyde plus 0.5% Triton X-100 (FATX) for 45 minutes. Following fixation, cells were rinsed with PBS (Invitrogen, CA) for at least 4-6 times, or until foaming in the suction pipette ceased. In contrast to previous experiments, no FBS was present in the treatment media, allowing for more rapid uptake of the antibiotic-based GTTR.
MDCK cells were washed with Hank's buffered salt solution (HBSS; Invitrogen, CA), then placed into buffers of varying potassium concentrations. HBSS was mixed with equi-osmolar KCl/HBSS to produce the required K^+ concentrations. Cells were treated with 1 μg/mL GTTR for 1 minute, then washed and fixed as described above.
Cells were washed with PBS (Invitrogen, CA), then placed into buffers containing varying concentrations of calcium, obtained by mixing HBSS with equimolar CaCl2, each at pH 7.3. Cells were treated with 5 μg/mL of GTTR for 30 seconds, then washed and fixed as above.
Cells were washed with saline, then treated with 5 μg/mL of GTTR in saline buffers of varying pH for 30 seconds, then washed and fixed as above. Sodium hydroxide and hydrochloric acid were used to alter pH. These experiments were performed in three different saline buffers: (i) PBS (no calcium), (ii) a mixture of […] for a final calcium concentration of 0.32 mM, and (iii) a mixture of three parts PBS to one part HBSS for a final calcium concentration of 0.97 mM.
Cells were washed three times with Ca^++-free saline (0.9% NaCl), then treated with 5 μg/mL GTTR and one of the following for 30 seconds: TRPV1 agonists (resiniferatoxin [RTX]; or anandamide [AND]; Alexis Biochemicals, San Diego, Calif.); or antagonists (iodo-RTX, or SB 366791; Tocris, Ellisville, Mo.). Cells were then washed in saline and fixed as above.
Cells were washed three times with Ca^++-free 0.9% NaCl, then treated with 5 μg/mL GTTR and one of the following for 30 seconds: 100 μM Ruthenium Red, 100 μM Ruthenium Red plus one of the TRPV1 agonists or antagonists described above; or lanthanum (La^+++) at 0.5 or 5 mM.

| Compound | fluorescence in inner ear epithelia [1] | fluorescence in inner ear epithelia [2] | GTTR fluorescence in FATX-fixed MDCK cells [3] | GTTR uptake [4] |
| --- | --- | --- | --- | --- |
| O=S(=O)([O-])c1cc(S(=O)(=O)O)ccc1C1=c2cc3c4c(c2Oc2c1cc1c5c2CCCN5CCC1)CCC[N+]=4CCC3 [hydrolyzed TR, Texas Red] | negligible fluorescence in their inner ear epithelia at all time points | negligible fluorescence in their inner ear epithelia at all time points |  |  |
| phosphatidylinositol-4,5-bisphosphate [PIP2] |  |  | clearly quenched the GTTR fluorescence | large reduction in GTTR uptake |
